Test results taken from US6576642B2, “Diamide compounds and compositions containing the same” (Kowa Co., Ltd., priority 1996, dated 2003).

System: production of IgE antibody
Experiment: Evaluation of inhibitory effect on production of IgE antibody (mouse spleen B cells cultured with LPS and IL-4, IgE in supernatant by ELISA)
Format: cell-based
Conditions: test agent at 10^-5 M; mouse (Balb/C) B cells, LPS + mouse IL-4, IgE in culture supernatant by ELISA
Method: Evaluation of inhibitory effect on production of IgE antibody:
A spleen was enucleated from a mouse (Balb/C, male, aged 8 weeks) and shredded in 0.3% BSA/HBSS to prepare single cells by means of a 200-mesh screen. Further, the single cells were hemolyzed by 0.75% ammonium chloride-17 mM Tris solution to prepare a splenocyte suspension (1×10^7/ml) using RPMI 1640 medium/25 mM HEPES/0.3% BSA. After the suspension was reacted with a mouse anti-mouse Thy-1.2 monoclonal antibody (product of Cedarlane Co.) at 4° C. for 1 hour, the reaction mixture was centrifuged, and the sediment cells were suspended again (1×10^7/ml, RPMI/HEPES/BSA). After the suspension was then reacted with a low-cytotoxic rabbit complement (product of Cedarlane Co.) at 37° C. for 1 hour, killed cells were removed by specific gravity centrifugation using lympholyte M (product of Cedarlane Co.) to obtain a B cell fraction as viable cells.
After B cells (10^5/0.2 ml/well) were cultured for a day together with LPS (E. coli 026:B6, product of DIFCO Co.) using a 96-well plate, mouse IL-4 (product of Genzyme Co.) was added to conduct culture further for 7 days.
Each test was added on the first day of the culture, and the amount of IgE in a culture supernatant was meausred by ELISA after the culture, thereby calculating out the inhibitory effect of the agent on the production of an IgE antibody.

| Compound | Inhibitory effect on production of IgE (%) |
| --- | --- |
| COc1cc(/C=C/C=C/C(=O)N[C@@H]2CCCC[C@H]2NC(=O)/C=C/C=C/c2cc(OC)c(OC)c(OC)c2)cc(OC)c1OC (relative stereo) [Example 15, trans-N,N′-bis[5-(3,4,5-trimethoxy-phenyl)penta-(2E,4E)-dienoyl]-1,2-diaminocyclohexane] | 100 |
| COc1cc(/C=C/C=C/C(=O)N(C)CCCCCCN(C)C(=O)/C=C/C=C/c2cc(OC)c(OC)c(OC)c2)cc(OC)c1OC [Example 5, N,N′-bis[5-(3,4,5-trimethoxyphenyl)-penta-(2E,4E)-dienoyl]-N,N′-dimethyl-1,6-diaminohexane] | 90 |
| COc1cc(/C=C/C=C/C(=O)NCc2ccc(CNC(=O)/C=C/C=C/c3cc(OC)c(OC)c(OC)c3)cc2)cc(OC)c1OC [Example 22, N,N′-bis[5-(3,4,5-trimethoxyphenyl)-penta-(2E,4E)-dienoyl]-1,4-bis(aminomethyl)benzene] | 90 |
| COc1cc(/C=C/C=C/C(=O)Nc2ccccc2NC(=O)/C=C/C=C/c2cc(OC)c(OC)c(OC)c2)cc(OC)c1OC [Example 26, N,N′-bis[5-(3,4,5-trimethoxyphenyl)-penta-(2E,4E)-dienoyl]-1,2-diaminobenzene] | 85 |
| COc1cc(/C=C/C=C/C(=O)Nc2cccnc2NC(=O)/C=C/C=C/c2cc(OC)c(OC)c(OC)c2)cc(OC)c1OC [Example 38, 2,3-bis[5-(3,4,5-trimethoxyphenyl)-penta-(2E,4E)-dienoylamino]pyridine] | 80 |
